Consider 29 compounds from ChEMBL document CHEMBL4400580, “Expanded Structure-Activity Studies of Lipoxazolidinone Antibiotics” (ACS Med Chem Lett, 2019).

As usually defined, the MIC is the smallest concentration in the dilution series that meets the test's criterion for growth inhibition. In general, IC50 refers to the concentration needed to halve the response being measured.

Converted amounts (≈) assume the structure as drawn.

For series [1], the system named is Staphylococcus aureus. Kind of series: Antimicrobial activity against methicillin-resistant Staphylococcus aureus ATCC 33591 measured after 16 hrs by broth microdilution method. It counts as functional. As to conditions: ATCC 33591, 16 h. (In broth dilution the organism is exposed to a series of concentrations in liquid medium.)
For series [2], the system named is Staphylococcus aureus. As to the kind of experiment: Antimicrobial activity against methicillin-sensitive Staphylococcus aureus ATCC 29213 measured after 16 hrs by broth microdilution method. In kind it is functional. As to conditions: ATCC 29213, 16 h.
For series [3], the system named is Acinetobacter baumannii. As to the kind of experiment: Antimicrobial activity against Acinetobacter baumannii ATCC 19606 measured after 16 hrs by broth microdilution method. In kind it is functional. As to conditions: ATCC 19606 = CIP 70.34 = JCM 6841, 16 h.
Series [4] concerns Escherichia coli. As to the kind of experiment: Antimicrobial activity against Escherichia coli SQ110 DTC measured after 16 hrs by broth microdilution method. It counts as functional.
Series [5] concerns Escherichia coli. Kind of series: Antimicrobial activity against Escherichia coli SQ110 LPTD measured after 16 hrs by broth microdilution method. In kind it is functional.
Series [6] has as its system Escherichia coli. As to the kind of experiment: Antimicrobial activity against Escherichia coli SQ110 measured after 16 hrs by broth microdilution method. As to conditions: SQ110, 16 h. In kind it is functional.
The nature of series [7]: Hemolysis in red blood cells (unknown origin) up to 40 uM. It counts as ADME, cell-based, Erythrocyte. As to conditions: read-out: Activity.
Series [8] relates to A549. As to the kind of experiment: Cytotoxicity against human A549 cells assessed as reduction in cell viability measured after 72 hrs by ATP-liteM luciferin-luciferase assay. It counts as cell-based. As to conditions: A549, 72 h.

For `COc1ccc(OC)c(CC(=O)/C=C2\NC(=O)[C@H](C(C)C)O2)c1`, the MIC amounted to 4 µg/mL (≈ 12.5 µM) in series [1] and 16 µg/mL (≈ 50.1 µM) in series [2].

Consider `CC(C)[C@@H]1O/C(=C/C(=O)Cc2ccccc2Br)NC1=O`, for which the minimum inhibitory concentration (MIC) in series [1] was 8 µg/mL (≈ 23.7 µM); in series [2], 16 µg/mL (≈ 47.3 µM).

Regarding `CC(C)[C@@H]1O/C(=C/C(=O)Cc2ccc(C(F)(F)F)cc2)NC1=O`, the MIC was found to be 128 µg/mL (≈ 391 µM) in series [3], 2 µg/mL (≈ 6.11 µM) in series [1] and 4 µg/mL (≈ 12.2 µM) in series [2].

For `CC(C)[C@@H]1O/C(=C/C(=O)Cc2ccc(Br)cc2)NC1=O`, the values for the MIC in series [3], in series [1] and in series [2] were 64 µg/mL (≈ 189 µM), 0.5 µg/mL (≈ 1.48 µM) and 1 µg/mL (≈ 2.96 µM), respectively.

For the compound `CC(C)[C@@H]1O/C(=C/C(=O)Cc2cccc(Br)c2)NC1=O`, the MIC in series [1] stood at 2 µg/mL (≈ 5.91 µM); in series [2], 16 µg/mL (≈ 47.3 µM).

For the compound `COc1ccc(OC)c(CCC(=O)/C=C2\NC(=O)[C@H](C(C)C)O2)c1`, the MIC in series [3] is more than 128 µg/mL; in series [1] it was 8 µg/mL (≈ 24 µM); in series [2], 4 µg/mL (≈ 12 µM).

With `CC(C)[C@@H]1O/C(=C/C(=O)CCc2ccccc2)NC1=O`, the MIC in series [3] came out at 128 µg/mL (≈ 468 µM); in series [1], 4 µg/mL (≈ 14.6 µM); in series [2], 8 µg/mL (≈ 29.3 µM).

For the compound `CC(C)[C@@H]1O/C(=C/C(=O)Cc2ccc(-c3ccccc3)cc2)NC1=O`, the MIC was 0.25 µg/mL (≈ 0.745 µM) in series [4]; more than 128 µg/mL in series [3]; 0.125 µg/mL (≈ 0.373 µM) in series [1]; 0.25 µg/mL (≈ 0.745 µM) in series [2]; 32 µg/mL (≈ 95.4 µM) in series [5]; more than 128 µg/mL in series [6].

As for `CC(C)[C@@H]1O/C(=C/C(=O)Cc2ccc(C#N)cc2)NC1=O`, the MIC in series [1] amounted to 4 µg/mL (≈ 14.1 µM); in series [2], 8 µg/mL (≈ 28.1 µM).

For the compound `CC(C)[C@@H]1O/C(=C/C(=O)Cc2ccc([N+](=O)[O-])cc2)NC1=O`, the MIC in series [1] is 8 µg/mL (≈ 26.3 µM); in series [2], 64 µg/mL (≈ 210 µM).

For `CC(C)[C@@H]1O/C(=C/C(=O)Cc2ccc(C(C)(C)C)cc2)NC1=O`, the MIC in series [1] stood at 2 µg/mL (≈ 6.34 µM); in series [2] it was 4 µg/mL (≈ 12.7 µM).

On to `CC(C)[C@@H]1O/C(=C/C(=O)CCc2ccc(Br)cc2)NC1=O`, for which the MIC in series [3] worked out at 128 µg/mL (≈ 363 µM); in series [1], 1 µg/mL (≈ 2.84 µM); in series [2], 2 µg/mL (≈ 5.68 µM).

As for `Cc1ccc(C)c(CC(=O)/C=C2\NC(=O)[C@H](C(C)C)O2)c1`, the MIC in series [1] was found to be 8 µg/mL (≈ 27.8 µM); in series [2] it was 16 µg/mL (≈ 55.7 µM).

Regarding `CC(C)[C@@H]1O/C(=C/C(=O)CCc2ccc(C(C)(C)C)cc2)NC1=O`, the MIC was 0.25 µg/mL (≈ 0.759 µM) in series [1] and 2 µg/mL (≈ 6.07 µM) in series [2].

On to `Cc1ccc(CC(=O)/C=C2\NC(=O)[C@H](C(C)C)O2)cc1`, for which the values for the minimal inhibitory concentration (MIC) in series [3], in series [1] and in series [2] were 128 µg/mL (≈ 468 µM), 2 µg/mL (≈ 7.32 µM) and 4 µg/mL (≈ 14.6 µM), respectively.

For the compound `CC(C)[C@@H]1O/C(=C/C(=O)Cc2ccc(OC(F)(F)F)cc2)NC1=O`, the MIC in series [4] is 0.06 µg/mL (≈ 0.175 µM); in series [1], 0.5 µg/mL (≈ 1.46 µM); in series [2], 2 µg/mL (≈ 5.83 µM); in series [5] it was 32 µg/mL (≈ 93.2 µM); in series [6], more than 128 µg/mL. In addition, the hemolysis in series [7] is less than 1%. Besides, the IC50 in series [8] stood at 14 µg/mL (≈ 40.8 µM).

Regarding `CC(C)[C@@H]1O/C(=C/C(=O)Cc2ccc(Cl)cc2)NC1=O`, the MIC in series [3] is 64 µg/mL (≈ 218 µM); in series [1], 0.5 µg/mL (≈ 1.7 µM); in series [2], 2 µg/mL (≈ 6.81 µM).

`CC(C)[C@@H]1O/C(=C/C(=O)CCc2ccc(C(F)(F)F)cc2)NC1=O`: the MIC turned out to be 0.5 µg/mL (≈ 1.46 µM) in series [1] and 2 µg/mL (≈ 5.86 µM) in series [2].

On to `Cc1ccc(CCC(=O)/C=C2\NC(=O)[C@H](C(C)C)O2)cc1`, for which the minimum inhibitory concentration (MIC) in series [1] came out at 8 µg/mL (≈ 27.8 µM); in series [2] it was 16 µg/mL (≈ 55.7 µM).

Take `CC(C)[C@@H]1O/C(=C/C(=O)Cc2ccc(F)cc2)NC1=O`: the MIC in series [1] was determined as 2 µg/mL (≈ 7.21 µM); in series [2], 4 µg/mL (≈ 14.4 µM).

As to `CC(C)[C@@H]1O/C(=C/C(=O)CCc2ccc(F)cc2)NC1=O`, the MIC in series [1] came out at 8 µg/mL (≈ 27.5 µM); in series [2] it was 16 µg/mL (≈ 54.9 µM).

For the compound `CC(C)[C@@H]1O/C(=C/C(=O)Cc2cc(F)ccc2F)NC1=O`, the figures for the MIC in series [1] and in series [2] were 8 µg/mL (≈ 27.1 µM) and 16 µg/mL (≈ 54.2 µM), respectively.

Take `CC(C)[C@@H]1O/C(=C/C(=O)CCCCCc2ccccc2)NC1=O`: the results for the minimum inhibitory concentration (MIC) in series [3], in series [1] and in series [2] were 128 µg/mL (≈ 406 µM), 2 µg/mL (≈ 6.34 µM) and 4 µg/mL (≈ 12.7 µM), respectively.

Take `CC(C)[C@@H]1O/C(=C/C(=O)Cc2cc(F)c(F)c(F)c2)NC1=O`: the values for the MIC in series [1] and in series [2] were 4 µg/mL (≈ 12.8 µM) and 8 µg/mL (≈ 25.5 µM), respectively.

With `CC(C)[C@@H]1O/C(=C/C(=O)CCc2ccc(Cl)cc2)NC1=O`, the MIC is 128 µg/mL (≈ 416 µM) in series [3], 0.5 µg/mL (≈ 1.62 µM) in series [1] and 2 µg/mL (≈ 6.5 µM) in series [2].

Consider `CC(C)[C@@H]1O/C(=C/C(=O)Cc2ccccc2)NC1=O`, for which the MIC in series [4] is 2 µg/mL (≈ 7.71 µM); in series [1], 2 µg/mL (≈ 7.71 µM); in series [2], 4 µg/mL (≈ 15.4 µM); in series [5], 32 µg/mL (≈ 123 µM); in series [6], more than 128 µg/mL.

`CCCCCCCCCC(=O)/C=C1\NC(=O)[C@H](C(C)C)O1`: the MIC was 1 to 2 µg/mL (≈ 3.38 to 6.77 µM) in series [4], 0.5 µg/mL (≈ 1.69 µM) in series [2], 32 µg/mL (≈ 108 µM) in series [5] and more than 128 µg/mL in series [6]. For the same compound, the hemolysis in series [7] is less than 1%. Besides, the IC50 in series [8] was 10 µg/mL (≈ 33.8 µM).

As for `CC(=O)NC[C@H]1CN(c2ccc(N3CCOCC3)c(F)c2)C(=O)O1` [LINEZOLID], the MIC in series [4] is 2 µg/mL (≈ 5.93 µM); in series [3], 64 µg/mL (≈ 190 µM); in series [1], 0.5 µg/mL (≈ 1.48 µM); in series [2], 1 µg/mL (≈ 2.96 µM); in series [5], 32 µg/mL (≈ 94.9 µM); in series [6], more than 128 µg/mL.

Take `CC(C)[C@@H]1O/C(=C/C(=O)Cc2ccc(N)cc2)NC1=O`: the minimal inhibitory concentration (MIC) in series [1] is 64 µg/mL (≈ 233 µM); in series [2], more than 128 µg/mL.
